These compounds were tested against human VPS34 (Homo sapiens (Human), UniProt Q8NEB9) (assay: Human VPS34 enzyme assay (Adapta TR-FRET ADP detection)). Details: not given.
Chain of human VPS34 (Q8NEB9 whole entry): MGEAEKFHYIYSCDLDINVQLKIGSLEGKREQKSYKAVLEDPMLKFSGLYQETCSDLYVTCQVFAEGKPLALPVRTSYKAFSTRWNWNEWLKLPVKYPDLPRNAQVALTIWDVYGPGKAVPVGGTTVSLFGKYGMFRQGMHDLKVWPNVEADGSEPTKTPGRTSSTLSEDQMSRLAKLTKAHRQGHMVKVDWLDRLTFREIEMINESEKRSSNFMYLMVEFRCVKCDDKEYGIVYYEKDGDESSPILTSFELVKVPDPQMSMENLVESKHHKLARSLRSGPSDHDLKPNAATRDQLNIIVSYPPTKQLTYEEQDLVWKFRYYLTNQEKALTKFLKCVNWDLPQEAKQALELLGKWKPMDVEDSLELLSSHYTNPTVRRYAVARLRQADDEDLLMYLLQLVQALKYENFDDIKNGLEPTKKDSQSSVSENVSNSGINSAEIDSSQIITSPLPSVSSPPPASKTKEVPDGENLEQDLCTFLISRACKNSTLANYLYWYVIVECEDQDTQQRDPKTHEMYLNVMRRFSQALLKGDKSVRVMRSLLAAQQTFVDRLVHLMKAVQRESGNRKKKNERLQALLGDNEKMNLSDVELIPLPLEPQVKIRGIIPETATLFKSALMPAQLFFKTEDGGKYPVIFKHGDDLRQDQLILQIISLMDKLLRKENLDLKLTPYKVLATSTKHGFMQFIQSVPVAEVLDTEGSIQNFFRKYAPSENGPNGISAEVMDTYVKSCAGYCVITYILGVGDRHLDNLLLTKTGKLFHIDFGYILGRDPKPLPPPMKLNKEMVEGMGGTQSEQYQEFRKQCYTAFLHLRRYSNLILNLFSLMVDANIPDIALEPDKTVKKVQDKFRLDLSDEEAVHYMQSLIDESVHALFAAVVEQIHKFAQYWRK
Format: biochemical
Parameters: Percent Inhibition: dose or concentration left out as unconfirmed
For `CCc1c(-c2ccnc(Nc3ccnc(C)n3)c2)cnc(Cl)c1NS(=O)(=O)c1ccc(F)cc1F` [Compound I-259, N-{6-chloro-4-ethyl-2′-[(2-methylpyrimidin-4-yl)amino]-3,4′-bipyridin-5-yl}-2,4-difluorobenzenesulfonamide], the “Percent Inhibition” value was 79%. In the case of `Cc1nccc(Nc2cc(-c3cnc(N)c(C(=O)N(C)C45CC(C4)C5)c3)ccn2)n1` [Compound I-277, 6-amino-N-(bicyclo[1.1.1]pent-1-yl)-N-methyl-2′-[(2-methylpyrimidin-4-yl)amino]-3,4′-bipyridine-5-carboxamide], the “Percent Inhibition” value is reported as 100%. In the case of `Cc1c(-c2ccnc(N)c2)cnc(Cl)c1NS(=O)(=O)c1ccc(F)cc1F` [Compound I-287, N′-(2′-amino-6-chloro-4-methyl-3,4′-bipyridin-5-yl)-2,4-difluorobenzenesulfonamide], the “Percent Inhibition” value is reported as 91%.

Same assay, conditions: IC50 range class
In the case of `COc1ncc(-c2ccnc(NC(C)=O)c2)c(C)c1NS(=O)(=O)c1ccc(F)cc1F` [Compound I-248, N-(5-{[(2,4-difluorophenyl)sulfonyl]amino}-6-methoxy-4-methyl-3,4′-bipyridin-2′-yl)acetamide], the IC50 is reported as 10 to 50 nM. `Cc1nccc(Nc2cc(-c3cnc(C)c(NC(=O)c4ccc(F)cc4F)c3)ccn2)n1` [Compound I-249, 2,4-difluoro-N-{6-methyl-2′-[(2-methylpyrimidin-4-yl)amino]-3,4′-bipyridin-5-yl}benzamide] gave an IC50 of 50 to 100 nM. Compound `CC(=O)Nc1cc(-c2cnc(Cl)c(NS(=O)(=O)c3ccc(F)cc3F)c2C)c(C)cn1` [Compound I-250, N-(6-chloro-5-{[(2,4-difluorophenyl)sulfonyl]amino}-4,5′-dimethyl 3,4′-bipyridin-2′-yl)acetamide] has an IC50 of 10 to 50 nM. In the case of `CC(=O)Nc1cc(-c2cnc(Cl)c(NS(=O)(=O)c3ccccc3F)c2C)ccn1` [Compound I-251, N-(6-chloro-5-{[(2-fluorophenyl)sulfonyl]amino}-4-methyl-3,4′-bipyridin-2′-yl)acetamide], the IC50 is reported as 10 to 50 nM. In the case of `COc1ncc(-c2ccnc(Nc3ccnc(C)n3)c2)cc1C(=O)N(C)c1ccc(F)cc1F` [Compound I-252, N-(2,4-difluorophenyl)-6-methoxy-N-methyl-2′-[(2-methylpyrimidin-4-yl)amino]-3,4′-bipyridine-5-carboxamide], the IC50 is reported as 10 to 50 nM. Compound `Cc1nccc(Nc2cc(-c3cnc(C)c(C(=O)O)c3)ccn2)n1` [Compound I-253, 6-methyl-2′-((2-methylpyrimidin-4-yl)amino)-[3,4′-bipyridine]-5-carboxylic acid] has an IC50 of 10 to 50 nM. Compound `Cc1c(-c2ccnc(NC(=O)C3CC3(F)F)c2)cnc(Cl)c1NS(=O)(=O)c1ccc(F)cc1F` (stereo not shown) [Compound I-254, N-(6-chloro-5-{[(2,4-difluorophenyl)sulfonyl]amino}-4-methyl-3,4′-bipyridin-2′-yl)-2,2-difluorocyclopropanecarboxamide] has an IC50 of 10 to 50 nM. `COC(=O)Nc1cc(-c2cnc(Cl)c(NS(=O)(=O)c3ccc(F)cc3F)c2C)ccn1` [Compound I-255, methyl (6-chloro-5-{[(2,4-difluorophenyl)sulfonyl]amino}-4-methyl-3,4′-bipyridin-2′-yl)carbamate] gave an IC50 of under 10 nM. In the case of `CNc1c(Cl)ncc(-c2ccnc(Nc3ccnc(C)n3)c2)c1C` [Compound I-256, 6-chloro-N-5-4-dimethyl-N-2-(2-methylpyrimidin-4-yl)-3,4′-bipyridine-2′,5-diamine], the IC50 is reported as 10 to 50 nM. In the case of `CC(=O)Nc1cc(-c2cnc(C)c(NS(=O)(=O)N3CCC3)c2)ccn1` [Compound I-257, N-{5-[(azetidin-1-ylsulfonyl)amino]-6-methyl-3,4′-bipyridin-2′-yl}acetamide], the IC50 is reported as 10 to 50 nM. In the case of `CC(=O)Nc1cc(-c2cc(NS(=O)(=O)c3ccc(F)cc3F)c(C)[n+]([O-])c2)ccn1` [Compound I-258, N-[4-(5-{[(2,4-difluorophenyl)sulfonyl]amino}-6-methyl-1-oxidopyridin-3-yl)pyridin-2-yl]acetamide], the IC50 is reported as 10 to 50 nM. `CCc1c(-c2ccnc(Nc3ccnc(C)n3)c2)cnc(Cl)c1NS(=O)(=O)c1ccc(F)cc1F` [Compound I-259, N-{6-chloro-4-ethyl-2′-[(2-methylpyrimidin-4-yl)amino]-3,4′-bipyridin-5-yl}-2,4-difluorobenzenesulfonamide] gave an IC50 of under 10 nM. With `CC(=O)Nc1cc(-c2cnc(C)c(NS(=O)(=O)N(C)C)c2C)ccn1` [Compound I-260, N-{5-[(dimethylsulfamoyl)amino]-4,6-dimethyl-3,4′-bipyridin-2′-yl}acetamide] the IC50 was 10 to 50 nM. For `Cc1nccc(Nc2cc(-c3cnc(C)c(C(=O)N4CCCCC4)c3)ccn2)n1` [Compound I-262, [6-methyl-2′-[(2-methylpyrimidin-4-yl)amino]-3,4′-bipyridin-5-yl](piperidin-1-yl)methanone], the IC50 was 10 to 50 nM. In the case of `Cc1ncc(-c2ccnc(-n3cnc4c(C)nccc43)c2)cc1NS(=O)(=O)N(C)C` [Compound I-263, N,N-dimethyl-N′-[6-methyl-2′-(4-methyl-1H-imidazol[4,5-c]pyridin-1-yl)-3,4′-bipyridin-5-yl]sulfuric diamide], the IC50 is reported as over 100 nM. `Cc1c(-c2ccnc(Nc3ccnc(-c4ccccc4)n3)c2)cnc(Cl)c1NS(=O)(=O)c1ccc(F)cc1F` [Compound I-264, N-{6-chloro-4-methyl-2′-[(2-phenylpyrimidin-4-yl)amino]-3,4′-bipyridin-5-yl}-2,4-difluorobenzenesulfonamide] was tested, and the IC50 was under 10 nM. Compound `Cc1ncc(-c2ccnc(Nc3ncccn3)c2)cc1NS(=O)(=O)c1ccc(F)cc1F` [Compound I-265, 2,4-difluoro-N-[6-methyl-2′-(pyrimidin-2-ylamino)3,4′-bipyridin-5-yl]benzenesulfonamide] has an IC50 of under 10 nM. `Cc1nccc(Nc2cc(-c3cnc(C)c(C(=O)N(C)C)c3)ccn2)n1` [Compound I-266, N,N,6-trimethyl-2′-[(2-methylpyrimidin-4-yl)amino]-3,4′-bipyridine-5-carboxamide] showed an IC50 of 10 to 50 nM. Work on `COc1ncc(-c2ccnc(NC(C)=O)c2)c(C)c1NS(=O)(=O)N(C)C` [Compound I-268, N-{5-[(dimethylsulfamoyl)amino]-6-methoxy-4-methyl-3,4′-bipyridin-2′-yl}acetamide] yielded an IC50 of over 100 nM. `CC(=O)Nc1cc(-c2cnc(C)c(NS(=O)(=O)N3CCN(C)CC3)c2)ccn1` [Compound I-269, N-(6-methyl-5-{[(4-methylpiperazin-1-yl)sulfonyl]amino}-3,4′-bipyridin-2′-yl)acetamide] showed an IC50 of 10 to 50 nM. In the case of `Cc1ncc(-c2ccnc(Nc3nc4ccccc4s3)c2)cc1NS(=O)(=O)c1ccc(F)cc1F` [Compound I-271, N-[2′-(1,3-benzothiazol-2-ylamino)-6-methyl-3,4′-bipyridin-5-yl]-2,4-difluorobenzenesulfonamide], the IC50 is reported as 10 to 50 nM. `Cc1cc(Nc2cc(-c3cnc(Cl)c(NS(=O)(=O)c4ccc(F)cc4F)c3C)ccn2)ccn1` [Compound I-272, N-{6-chloro-4-methyl-2′-[(2-methylpyridin-4-yl)amino]-3,4′-bipyridin-5-yl}-2,4-difluorobenzenesulfonamide] was tested, and the IC50 was 50 to 100 nM. `CCN(C)S(=O)(=O)Nc1cc(-c2ccnc(NC(C)=O)c2)cnc1C` [Compound I-273, N-(5-{[ethyl(methyl)sulfamoyl]amino}-6-methyl-3,4′-bipyridin-2′-yl)acetamide] showed an IC50 of under 10 nM. `CC(=O)Nc1cc(-c2cnc(C)c(NS(=O)(=O)N3CCCC3)c2)ccn1` [Compound I-274, N-{6-methyl-5-[(pyrrolidin-1-ylsulfonyl)amino]-3,4′-bipyridin-2′-yl}acetamide] showed an IC50 of 10 to 50 nM. Compound `Cc1nccc(Nc2cc(-c3cnc(C)c(C(=O)N(C)C45CC(C4)C5)c3)ccn2)n1` [Compound I-275, N-(bicyclo[1.1.1]pent-1-yl)-N,6-dimethyl-2′-[(2-methylpyrimidin-4-yl)amino]-3,4′-bipyridine-5-carboxamide] has an IC50 of 10 to 50 nM. For `Cc1nccc(Nc2cc(-c3cnc(N)c(C(=O)N(C)C45CC(C4)C5)c3)ccn2)n1` [Compound I-277, 6-amino-N-(bicyclo[1.1.1]pent-1-yl)-N-methyl-2′-[(2-methylpyrimidin-4-yl)amino]-3,4′-bipyridine-5-carboxamide], the IC50 was under 10 nM. Work on `CCc1c(-c2ccnc(NC(=O)C3CC3)c2)cnc(Cl)c1NS(=O)(=O)c1ccc(F)cc1F` [Compound I-278, N-(6-chloro-5-{[(2,4-difluorophenyl)sulfonyl]amino}-4-ethyl-3,4′-bipyridin-2′-yl)cyclopropanecarboxamide] yielded an IC50 of 10 to 50 nM. `Cc1nccc(Nc2cc(-c3cnc(O)c(S(=O)(=O)NC4CCC4)c3)ccn2)n1` [Compound I-279, N-cyclobutyl-6-hydroxy-2′-[(2-methylpyrimidin-4-yl)amino]3,4′-bipyridine-5-sulfonamide] gave an IC50 of 10 to 50 nM. Work on `Cc1nccc(Nc2cc(-c3cnc(C)c(C(N)=O)c3)ccn2)n1` [Compound I-280, 6-methyl-2′-[(2-methylpyrimidin-4-yl)amino]-3,4′-bipyridine-5-carboxamide] yielded an IC50 of over 100 nM. With `Cc1ncc(-c2ccnc(N)c2)cc1NS(=O)(=O)N(C)C` [Compound I-281, N′-(2′-amino-6-methyl-3,4′-bipyridin-5-yl)-N,N-dimethylsulfuric diamide] the IC50 was over 100 nM. `Cc1c(-c2ccnc(Nc3ccncn3)c2)cnc(Cl)c1NS(=O)(=O)c1ccc(F)cc1F` [Compound I-282, N-[6-chloro-4-methyl-2′-(pyrimidin-4-ylamino)-3,4′-bipyridin-5-yl]-2,4-difluorobenzenesulfonamide] was tested, and the IC50 was under 10 nM. Compound `CC(=O)Nc1cc(-c2cnc(N(C)C)c(C(=O)NC34CC(C3)C4)c2)ccn1` [Compound I-283, 2′-Acetamido-N-(bicyclo[1.1.1]pent-1-yl)-6-(dimethylamino)-3,4′-bipyridine-5-carboxamide] has an IC50 of 10 to 50 nM. Compound `CN(C)c1ncc(-c2ccnc(Nc3ccncn3)c2)cc1C(=O)N(C)C12CC(C1)C2` [Compound I-284, N-(bicyclo[1.1.1]pent-1-yl)-6-(dimethylamino)-N-methyl-2′-(pyrimidin-4-ylamino]-3,4′-bipyridine-5-carboxamide] has an IC50 of 10 to 50 nM. For `Cc1nccc(Nc2cc(-c3cnc(C)c(C(=O)NCC4CC4)c3)ccn2)n1` [Compound I-285, N-(cyclopropylmethyl)-6-methyl-2′-((2-methylpyrimidin-4-yl)amino)-[3,4′-bipyridine]-5-carboxamide], the IC50 was 10 to 50 nM. In the case of `Cc1nccc(Nc2cc(-c3cnc(C)c(NS(=O)(=O)N(C)C)c3)ccn2)n1` [Compound I-286, N,N-dimethyl-N′-{6-methyl-2′-[(2-methylpyrimidin-4-yl)amino]-3,4′-bipyridine-5-yl}sulfuric diamide], the IC50 is reported as under 10 nM. Work on `Cc1c(-c2ccnc(N)c2)cnc(Cl)c1NS(=O)(=O)c1ccc(F)cc1F` [Compound I-287, N′-(2′-amino-6-chloro-4-methyl-3,4′-bipyridin-5-yl)-2,4-difluorobenzenesulfonamide] yielded an IC50 of over 100 nM. Compound `Cc1nccc(Nc2cc(-c3cnc(C)c(N4CCCN(C)S4(=O)=O)c3)ccn2)n1` [Compound I-288, 6-methyl-5-(6-methyl-1,1-dioxido-1,2,6-thiadiazinan-2-yl)-N-(2-methylpyrimidin-4-yl)-3,4′-bipyridin-2′-amine] has an IC50 of 10 to 50 nM.
